The record followed here is ChEMBL document CHEMBL3751824, “Design, synthesis, and docking studies of phenylpicolinamide derivatives bearing 1H-pyrrolo[2,3-b]pyridine moiety as c-Met inhibitors” (Bioorg Med Chem, 2016).

The test system of one assay is A549. As to the kind of experiment: Cytotoxicity against human A549 cells after 72 hrs by MTT assay. The note with it: A549, 72 h. Background: Tetrazolium dyes change colour on reduction, which living cells bring about.
The next assay relates to HepG2. As to the kind of experiment: Cytotoxicity against human HepG2 cells after 72 hrs by MTT assay. The note with it: HepG2, 72 h.
For a further assay, the system named is HeLa. Briefly: Cytotoxicity against human HeLa cells after 72 hrs by MTT assay.
A short description of the next assay: cells. The note with it: Homo sapiens, PC-3, 72 h.
Another assay relates to MCF7. As to the kind of experiment: cells. The settings on record: Homo sapiens, MCF7, 72 h.
For assay [1], the target named is Hepatocyte growth factor receptor (Homo sapiens, UniProt P08581). Briefly: Inhibition of c-Met (unknown origin) by mobility shift assay.
Sequence of Hepatocyte growth factor receptor (P08581 whole entry): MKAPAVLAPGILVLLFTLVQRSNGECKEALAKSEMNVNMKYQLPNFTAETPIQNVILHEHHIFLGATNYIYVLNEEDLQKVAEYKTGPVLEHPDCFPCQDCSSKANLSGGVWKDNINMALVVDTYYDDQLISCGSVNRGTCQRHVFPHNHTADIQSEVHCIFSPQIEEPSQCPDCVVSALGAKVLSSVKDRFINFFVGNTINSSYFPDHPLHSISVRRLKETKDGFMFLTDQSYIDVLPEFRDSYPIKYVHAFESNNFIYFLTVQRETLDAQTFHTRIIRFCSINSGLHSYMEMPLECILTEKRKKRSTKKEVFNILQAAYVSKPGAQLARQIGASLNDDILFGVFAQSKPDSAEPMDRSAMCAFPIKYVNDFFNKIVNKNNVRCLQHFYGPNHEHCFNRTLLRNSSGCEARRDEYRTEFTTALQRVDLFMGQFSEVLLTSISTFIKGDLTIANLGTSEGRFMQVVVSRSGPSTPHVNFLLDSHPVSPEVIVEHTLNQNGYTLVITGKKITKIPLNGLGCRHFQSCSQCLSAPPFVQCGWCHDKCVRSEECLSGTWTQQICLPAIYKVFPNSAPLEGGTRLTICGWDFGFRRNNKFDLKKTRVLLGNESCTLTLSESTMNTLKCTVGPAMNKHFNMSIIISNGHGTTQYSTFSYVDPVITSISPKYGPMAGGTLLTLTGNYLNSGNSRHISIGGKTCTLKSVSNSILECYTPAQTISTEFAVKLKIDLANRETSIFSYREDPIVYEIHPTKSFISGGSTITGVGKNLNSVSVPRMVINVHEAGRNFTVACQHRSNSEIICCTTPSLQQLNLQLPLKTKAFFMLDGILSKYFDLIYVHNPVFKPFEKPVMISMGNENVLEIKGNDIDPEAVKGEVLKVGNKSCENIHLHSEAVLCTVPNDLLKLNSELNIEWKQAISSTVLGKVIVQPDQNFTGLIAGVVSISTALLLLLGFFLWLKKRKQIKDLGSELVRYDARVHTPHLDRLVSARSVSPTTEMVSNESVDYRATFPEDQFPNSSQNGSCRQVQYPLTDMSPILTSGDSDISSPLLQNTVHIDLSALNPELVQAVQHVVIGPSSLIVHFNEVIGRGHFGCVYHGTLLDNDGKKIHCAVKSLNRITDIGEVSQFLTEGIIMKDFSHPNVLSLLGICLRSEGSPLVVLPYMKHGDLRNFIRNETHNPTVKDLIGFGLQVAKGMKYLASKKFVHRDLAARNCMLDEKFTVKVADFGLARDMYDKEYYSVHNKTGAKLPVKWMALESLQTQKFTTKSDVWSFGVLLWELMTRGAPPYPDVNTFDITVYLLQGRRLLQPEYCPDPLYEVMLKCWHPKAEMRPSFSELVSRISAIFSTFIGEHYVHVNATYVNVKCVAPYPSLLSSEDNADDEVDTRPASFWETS

Description for MCF7: Cytotoxicity against human MCF7 cells after 72 hrs by MTT assay

The IC50 is the point on the concentration scale where inhibition reaches its midpoint. Turning to `COc1ccc(-c2ccnc(C(=O)Nc3ccc(Oc4ccnc5[nH]ccc45)cc3)c2)cc1`, the IC50 amounted to 6.97 µM in the assay on A549; 11.7 µM in the assay on HepG2; 7.53 µM with HeLa; 9.62 µM in “cells”; 8.21 µM in the assay with MCF7.

As for `O=C(Nc1ccc(Oc2ccnc3[nH]ccc23)c(F)c1)c1cc(-c2ccc(F)cc2F)ccn1`, the IC50 (with A549; in assay [1]; in “cells”; in the assay on MCF7) was greater than 10 µM in each case.

In the case of `O=C(Nc1ccc(Oc2ccnc3[nH]ccc23)cc1)c1cc(-c2ccc(Cl)cc2)ccn1`, the half-maximal inhibitory concentration (IC50) was 4.31 µM in the assay with A549, 25.1 µM in the assay “cells” and greater than 10 µM with MCF7.

On to `COc1ccc(-c2ccc(C(=O)Nc3ccc(Oc4ccnc5[nH]ccc45)cc3)nc2)cc1`, for which the IC50 in the assay on A549, in the assay “cells” and in the assay on MCF7 was greater than 10 µM in each case.

On to `O=C(Nc1ccc(Oc2ccnc3[nH]ccc23)c(F)c1)c1cc(-c2ccc(F)cc2)ccn1`, for which the IC50 in the assay on A549 worked out at 1.09 µM; in the assay “cells”, 0.71 µM; with MCF7, 9.52 µM.

As to `Cc1ccc(-c2ccc(C(=O)Nc3ccc(Oc4ccnc5[nH]ccc45)cc3)nc2)cc1`, the IC50 in the assay on A549, in “cells” and in the assay with MCF7 was greater than 10 µM throughout.

Regarding `COc1ccc(-c2ccnc(C(=O)Nc3ccc(Oc4ccnc5[nH]ccc45)c(F)c3)c2)cc1`, the IC50 with A549 turned out to be 1.04 µM; with HepG2 it was 13.3 µM; in the assay with HeLa it was 5.89 µM; in “cells”, 0.02 µM; in the assay on MCF7, 9.11 µM.

As to `CCc1ccc(-c2ccnc(C(=O)Nc3ccc(Oc4ccnc5[nH]ccc45)c(F)c3)c2)cc1`, the IC50 was determined as 3.37 µM in the assay on A549; 10.4 µM in the assay on HepG2; 8.63 µM in the assay on HeLa; 2.96 µM in “cells”; 7.47 µM in the assay on MCF7.

On to `O=C(Nc1ccc(Oc2ccnc3[nH]ccc23)c(F)c1)c1cc(-c2ccc(C(F)(F)F)cc2)ccn1`, for which the IC50 was 4.92 µM with A549, greater than 10 µM in assay [1], 4.35 µM in the assay “cells” and 8.55 µM in the assay on MCF7.

In the case of `Cc1ccc(-c2ccnc(C(=O)Nc3ccc(Oc4ccnc5[nH]ccc45)cc3)c2)cc1`, the IC50 in the assay on A549, in the assay “cells” and in the assay on MCF7 was greater than 10 µM each time.

For `O=C(Nc1ccc(Oc2ccnc3[nH]ccc23)c(F)c1)c1ccc(-c2ccc(Cl)cc2)cn1`, the values for the IC50 in the assay with A549, in the assay “cells” and in the assay on MCF7 were 10 µM, 3.03 µM and greater than 10 µM, respectively.

Turning to `O=C(Nc1ccc(Oc2ccnc3[nH]ccc23)c(F)c1)c1ccc(-c2ccc(F)cc2F)cn1`, the IC50 with A549 is 3.1 µM; in the assay “cells” it was 4.72 µM; with MCF7, greater than 10 µM.

Consider `CCc1ccc(-c2ccc(C(=O)Nc3ccc(Oc4ccnc5[nH]ccc45)cc3)nc2)cc1`, for which the IC50 (with A549; in assay [1]; in “cells”; in the assay with MCF7) was greater than 10 µM throughout.

For `COc1ccc(-c2ccc(C(=O)Nc3ccc(Oc4ccnc5[nH]ccc45)c(F)c3)nc2)cc1`, the IC50 in the assay on A549 is 2.24 µM; in assay [1], greater than 10 µM; in “cells” it was 0.65 µM; in the assay with MCF7 it was 10.1 µM.

For the molecule `Cc1ccc(-c2ccnc(C(=O)Nc3ccc(Oc4ccnc5[nH]ccc45)c(F)c3)c2)cc1`, the IC50 in the assay with A549 amounted to 3.12 µM; in the assay “cells”, 3.97 µM; in the assay with MCF7, 8.43 µM.

As for `O=C(Nc1ccc(Oc2ccnc3[nH]ccc23)c(F)c1)c1cc(-c2ccccc2)ccn1`, the 50% inhibitory concentration (IC50) with A549 was 4.95 µM; in assay [1], greater than 10 µM; in the assay “cells” it was greater than 10 µM; in the assay on MCF7, greater than 10 µM.

Consider `O=C(Nc1ccc(Oc2ccnc3[nH]ccc23)cc1)c1cc(-c2ccc(C(F)(F)F)cc2)ccn1`, for which the IC50 was 3.95 µM in the assay on A549, greater than 10 µM in assay [1], 14.2 µM in “cells” and greater than 10 µM in the assay with MCF7.

On to `Cc1ccc(-c2ccc(C(=O)Nc3ccc(Oc4ccnc5[nH]ccc45)c(F)c3)nc2)cc1`, for which the concentration for half-maximal inhibition (IC50) in the assay with A549 stood at 2.3 µM; in the assay “cells”, 2.64 µM; in the assay with MCF7, 8.02 µM.

On to `O=C(Nc1ccc(Oc2ccnc3[nH]ccc23)cc1)c1ccc(-c2ccc(F)cc2F)cn1`, for which the IC50 (in the assay on A549; in assay [1]; in the assay “cells”; in the assay on MCF7) was greater than 10 µM in each case.

For the molecule `Cc1ccc(-c2ccnc(C(=O)Nc3ccc(Oc4ccnc5[nH]ccc45)c(F)c3)c2)c(C)c1`, the IC50 with A549 worked out at 4.35 µM; in the assay with HepG2, 13.3 µM; in the assay with HeLa, 11.9 µM; in “cells” it was 4.01 µM; with MCF7, 6.22 µM.

For `O=C(Nc1ccc(Oc2ccnc3[nH]ccc23)c(F)c1)c1ccc(-c2ccc(F)cc2)cn1`, the IC50 in the assay with A549 is 6.01 µM; in assay [1] it was greater than 10 µM; in “cells”, 13.4 µM; in the assay with MCF7 it was greater than 10 µM.

Regarding `O=C(Nc1ccc(Oc2ccnc3[nH]ccc23)cc1)c1ccc(-c2ccc(Cl)cc2)cn1`, the IC50 (with A549; in assay [1]; in the assay “cells”; in the assay on MCF7) was greater than 10 µM in each case.

Consider `O=C(Nc1ccc(Oc2ccnc3[nH]ccc23)c(F)c1)c1ccc(-c2ccccc2)cn1`, for which the IC50 with A549 was 1.25 µM; in assay [1], greater than 10 µM; in “cells”, 0.76 µM; in the assay with MCF7 it was 4.39 µM.

On to `Cc1cccc(-c2ccnc(C(=O)Nc3ccc(Oc4ccnc5[nH]ccc45)c(F)c3)c2)c1`, for which the IC50 was 1.75 µM with A549; 11.2 µM with HepG2; 10.3 µM in the assay with HeLa; 0.86 µM in “cells”; 9.12 µM in the assay on MCF7.

For the molecule `Cc1cccc(-c2ccnc(C(=O)Nc3ccc(Oc4ccnc5[nH]ccc45)cc3)c2)c1`, the IC50 in the assay on A549 is 7.01 µM; in the assay “cells”, 5.47 µM; in the assay on MCF7 it was 7.47 µM.

`O=C(Nc1ccc(Oc2ccnc3[nH]ccc23)cc1)c1cc(-c2ccccc2)ccn1`: the IC50 stood at 2.92 µM with A549, 3.27 µM in “cells” and 3.75 µM in the assay with MCF7.
